Source: patent EP4385495A1, “NANOSYSTEMS FOR THE ENCAPSULATION OF THERAPEUTIC AGENTS” (National Technical University of Athens, priority 2022, dated 2024)

Tests used:
[1] = Body weight in collagenase-induced osteoarthritis rat model; format: in vivo, Wistar rats
Experimental: (§1) In order to understand the anti-inflammatory and antioxidant potential of the nanoparticles of the invention in vivo an experimental animal model of osteoarthritis (OA) was established. The OA lesions were caused by matrix degradation of articular cartilage using enzymatic means, such as collagenase type-II. Following the induction of osteoarthritis, the studied nanoparticles were administered for 8 weeks in which period the morphological and behavioral changes were measured and finally histological analysis of the articular cartilage samples concluded the in vivo study.
(§2) Rats were anesthetized with chloral hydrate. The right knee joints of Group I were injected with normal saline solution and served as a control. Animals from the groups II, III, IV, V, VI, VII were injected with collagenase type II (Clostridium histolyticum). Collagenase (125 collagen digestion unit/mg) was dissolved in saline, and it was injected intra-articularly into the right knee joint twice on days 1 and 4 of the experiment (Al-Saffar, F., H. Ganabadi and S. Fakurazi. Collagenase and sodium iodoacetate-induced experimental osteoarthritis model in Sprague dawley rats. Asian J. Sci. Res. 2: 1-13, 2009). The left knees of all animals were left untreated as a control.
(§3) Changes in body weight and knee diameter were measured on the 1st, 4th,11th,21st,31st,41st,51st, 61st, 71st day before every injection. Knee diameter was measured using a digital caliper. […] A change in body weight is also measured as one of the parameters to assess the course of the disease in the OA animal models.

[2] = system: experimental animal model of osteoarthritis (OA); test: Grid-walking test in osteoarthritis rat model; format: in vivo, Wistar rats
Experimental: as §2
In this test the rats were allowed to explore freely for 4 minutes in a wire grid and when one of the limbs fell below the grid surface during free walking, the observer counted the number of foot-fault errors (footslips) (Starkey, M. L., Barritt, A. W., Yip, P. K., Davies, M., Hamers, F. P. T., McMahon, S. B., & Bradbury, E. J. (2005). Assessing behavioural function following a pyramidotomy lesion of the corticospinal tract in adult mice. Experimental Neurology, 195(2), 524-539. doi:10.1016/j.expneurol.2005.0).

[3] = system: experimental animal model of osteoarthritis (OA); test: von Frey mechanical allodynia test in osteoarthritis rat model; format: in vivo, Wistar rats; conditions: for Paw Withdrawal Threshold (%): right paw/(right paw + left paw)*100
Experimental: Healthy adult male Wistar rats (150-200 g) were used for the study, with water and food ad libitum, at a constant temperature of 22°C and controlled lighting (12 h light/12 h dark cycle). […] As far as the dispersion procedure of the injectables is concerned, all the natural compounds were dissolved in saline solution, whereas the studied nanoparticles were mechanically grinded in a mortar and pestle set with saline solution and Tween 20 (2% w/v) and heated at 36 °C before each treatment. There were six treatments administered every 10 days. At the end of the experiment rats were euthanized and both knees were collected for histological analysis. Rats were anesthetized with chloral hydrate. The right knee joints of Group I were injected with normal saline solution and served as a control. Animals from the groups II, III, IV, V, VI, VII were injected with collagenase type II (Clostridium histolyticum). Collagenase (125 collagen digestion unit/mg) was dissolved in saline, and it was injected intra-articularly into the right knee joint twice on days 1 and 4 of the experiment ([…] and S. Fakurazi. Collagenase and sodium iodoacetate-induced experimental osteoarthritis model in Sprague dawley rats. Asian J. Sci. Res. 2: 1-13, 2009). The left knees of all animals were left untreated as a control. For the evaluation of the effectiveness and time of release of the encapsulated compounds, all animals were subjected to a series of behavioral testing in addition to the measurements of body weight and knees diameter change. The experimental protocol of the present study followed the combination of three different behavioral tests, which are von Frey mechanical allodynia test, grid walking and slope walking test. Behavioral tests are performed in three phases, at the beginning before the start of treatment, in the middle of treatment (approximately 35-40 days) and at the end (after the 70th day). Mechanical allodynia was tested by the von Frey method which detects pain threshold as the paw withdrawal response. For the testing, rats were placed into plastic chambers that allow access to the plantar surface of the hind paws. […] In Table 15 below, the nociceptive threshold is defined as: nociceptive threshold (%) = ([…])/((nociceptive; threshold on right paw + nociceptive threshold of left paw))*100 [formula] Table 13: von Frey-paw withdrawal threshold (g)

[4] = CCK-8 viability assay; format: cell-based; conditions: human, primary human chondrocytes; 1 µM, 72h; positive control set to 100; read-out: Mean % relative viability
Experimental: b) The viability of human primary chondrocytes was evaluated following incubation with increasing concentrations of either the pure Naringin (S1) or the nanosystems (Samples S2 and S3) at 2-10-50µM of encapsulated Naringin (1:5 serial dilutions) for 72h (higher concentrations were not used because the nanosystems become insoluble and aggregates sediment on the cell monolayer). For S2 this corresponded to 6,4 µg/ml (for 2 µM of Naringin), 32 µg/ml (for 10 µM of Naringin) and 158 µg/ml (for 50 µM of Naringin) respectively, of total NP concentration. For S3 (CS[PLA[NAR]]) the total NP concentrations to provide the same µM of encapsulated Naringin were 14,4 / 72 / 360 µg/m). As control for the nanosystems, a blank PLA nanoparticle preparation coated with chitosan (S4) was used, at the same µg/ml polymer concentration like the ones used to achieve the 2-10-50µM range for Naringin (the difference being that the blank contains no Naringin). Finally, the blank S4 was used at the 14,4/72/360 µg/ml concentration range (1:5 serial dilutions). Following incubation, the CCK-8 viability kit was used according to manufacturer's instructions (Sigma, 96992-500TESTS-F). Macroscopical and microscopical observation confirmed the proper complete solubility and dispersion of the Nanoparticles. Importantly, healthy cell morphology was observed (spindle-like attached cells with several processes) with concomitant absence of undissolved material.
Table 5. Effect of the natural products and the nanosystems on the relative cell viability of primary human chondrocytes. Measurements obtained using the CCK-8 viability kit. Values normalized to positive control (PC; set to 100; arbitrary unit). Samples' coding: S1= pure Naringin, S2=Naringin encapsulated in PLA nanoparticles [PLA[NAR]], S3=Naringin encapsulated in PLA nanoparticles coated with chitosan CS[PLA[NAR]], and S4=Blank PLA nanoparticles coated with chitosan, CS(PLA[---]].

[5] = system: experimental animal model of osteoarthritis (OA); test: Slope walking test in osteoarthritis rat model; format: in vivo, Wistar rats
Experimental: as §2
Walking on an inclined plane was used for the clinical assessment of motor function in rats after induction of OA. The method consists of placing the animal on an inclined plane and then measuring the time (seconds) needed for the animals to go up the walking tray.

[6] = system: experimental animal model of osteoarthritis (OA); test: Knee diameter (digital caliper) and gross observations in collagenase-induced osteoarthritis rat model; format: in vivo, Wistar rats; conditions: for Right knee diameter: collagenase-injected knee; for Left knee diameter: untreated control knee
Experimental: as §1, §2, §3

[7] = system: RAW264.7 cells; test: MTT cell viability assay; format: cell-based, mouse; conditions: 24h
Description: The MTT (3-[4,5-dimethylthiazol-2-yl]-2,5 diphenyl tetrazolium bromide) assay is based on the ability of viable cells with active metabolism to convert the yellow MTT to a purple formazan product, which determines mitochondrial activity. The MTT formazan product agglomerates as an insoluble residuum within the cells, which can be solubilized (in this protocol with DMSO) for homogeneous measurement. Thus, any increase or decrease in the number of viable cells can be detected by measuring the formazan concentration reflected in the optical density (OD) measurement at 540 nm with a reference absorption of 720 nm. This assay is broadly used to measure the in vitro cytotoxic effects of drugs on cell lines or primary cells. For the experimental procedure a standard solution of MTT 1mg/mL in PBS was prepared which after filtration ([…] filter (Millipore, Carrigtwohill, Ireland)) was stored in the dark (4-8 °C) until use. In brief, RAW 264.7 cells were seeded in a 96-well plate at a density of 30.000 cells/ in 100 µL of medium per well. […] This was followed by incubation for 24 h, 48 h and 72 h. At the end of the incubation 10 µL of MTT was added to each well followed by incubation for 4 hours, for the formation of the formazan crystals. The formazan crystals were then dissolved by adding DMSO and stirring lightly for 30 min, after which the absorbance was measured in a plate reader at 540 nm with a reference absorbance of 720 nm. […] Table 4: % cell viability after treatment of RAW264.7 cells with the samples

[8] = 1st injection CO/saline (before treatment)
[9] = 2nd injection CO/saline (before treatment)
[10] = 70 days (end of experimental protocol)

CC(C)Cc1ccc(C(C)C(=O)O)cc1 (centres unmarked) [IBUPROFEN, ibuprofen]
Body Weight (BW) [1, 8]: 234 g | Body Weight (BW) ([1]; 1st treatment, 10 mg/kg (S1, ibuprofen i.p.; nanoparticles i.a.), every 10 days): 245 g | Body Weight (BW) [1, 9]: 230 g | Body Weight (BW) ([1]; 2nd treatment, 10 mg/kg (S1, ibuprofen i.p.; nanoparticles i.a.)): 276 g | Body Weight (BW) ([1]; 3rd treatment, 10 mg/kg (S1, ibuprofen i.p.; nanoparticles i.a.)): 296 g | Body Weight (BW) ([1]; 4th treatment, 10 mg/kg (S1, ibuprofen i.p.; nanoparticles i.a.)): 303 g | Body Weight (BW) ([1]; 5th treatment, 10 mg/kg (S1, ibuprofen i.p.; nanoparticles i.a.)): 308 g | Body Weight (BW) ([1]; 6th treatment, 10 mg/kg (S1, ibuprofen i.p.; nanoparticles i.a.)): 313 g | % Changes in Body Weight (BW) ([1]; 11 days (before treatment)): 4,7% | % Changes in Body Weight (BW) [1, 10]: 40,2% | Body Weight (BW) ([1]; final, 10 mg/kg (S1, ibuprofen i.p.; nanoparticles i.a.)): 328 g | Foot fault in grid-walk test (4 min) ([2]; 11 days left paw): 1,4 | Foot fault in grid-walk test (4 min) ([2]; 11 days right paw): 2,8 | Foot fault in grid-walk test (4 min) ([2]; 40 days left paw): 1,8 | Foot fault in grid-walk test (4 min) ([2]; 40 days right paw): 1,2 | Foot fault in grid-walk test (4 min) ([2]; 70 days left paw): 1 | Foot fault in grid-walk test (4 min) ([2]; 70 days right paw): 1 | von Frey-paw withdrawal threshold ([3]; 11 days (before treatment)): 59,78 g | von Frey-paw withdrawal threshold ([3]; 70 days (end of experimental protocol), 10 mg/kg (S1, ibuprofen i.p.; nanoparticles i.a.)): 83,8 g | von Frey-paw withdrawal threshold ([3]; left-control paw): 93,9 g | Paw Withdrawal Threshold (%) ([3]; 11 days (before treatment)): 38,90% | Paw Withdrawal Threshold (%) [3, 10]: 45,44% | viability at 72 h, 1 µM [4]: 100% | Slope Walking ([5]; 11 days (before treatment)): 9,8 sec | Slope Walking [5, 10]: 8,9 sec | % Changes in Left knee diameter ([6]; 11 days (before treatment)): 0,02% | % Changes in Right knee diameter ([6]; 11 days (before treatment)): 0,91% | % Changes in Left knee diameter [6, 10]: 0,44% | % Changes in Right knee diameter [6, 10]: 0,37% | Right knee diameter [6, 8]: 0,8128 cm | Right knee diameter ([6]; 1st treatment, 10 mg/kg (S1, ibuprofen i.p.; nanoparticles i.a.)): 0,8202 cm | Right knee diameter [6, 9]: 0,8192 cm | Right knee diameter ([6]; 3rd treatment): 0,8172 cm | Right knee diameter ([6]; 4th treatment): 0,8174 cm | Right knee diameter ([6]; 5th treatment): 0,817 cm | Right knee diameter ([6]; 6th treatment): 0,816 cm | Right knee diameter ([6]; final): 0,8158 cm | Left knee diameter ([6]; 1st injection CO/saline): 0,8158 cm | Left knee diameter ([6]; 1st treatment): 0,816 cm | Left knee diameter ([6]; 2nd injection CO/saline): 0,816 cm | Left knee diameter ([6]; 4th treatment): 0,8184 cm | Left knee diameter ([6]; final): 0,8194 cm

COc1cc(C2Oc3cc([C@H]4Oc5cc(O)cc(O)c5C(=O)[C@@H]4O)ccc3OC2CO)ccc1O (some centres unmarked) [PC (Silibinin), silibinin]
% cell viability ([7]; 25 µM): 30% | % cell viability ([7]; 50 µM): 20%
